Here are results for ten compounds from EP4818176A1, “TETRACYCLIC DERIVATIVE INHIBITOR, AND PREPARATION METHOD AND USE THEREFOR” (Shanghai Hansoh Biomedical Co., Ltd., priority 2023, dated 2025).

The target in data set [1] is T1, PRMT5/MEP50-MTA protein complex (Homo sapiens, UniProt O14744).
T1 construct: purchased Viva Biotech
Briefly: Thermal shift assay: thermal stability (melting temperature) of PRMT5/MEP50-MTA protein complex. It counts as binding. Conditions: final compound concentration 8 µM; 2 µM PRMT5/MEP50, 2 µM MTA; Tm minus Tm of DMSO vehicle control. In short, it runs like this:
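Human PRMT5/MEP50 (2 µM) was preincubated 30 min with 2 µM MTA in 50 mM HEPES, 10 mM DTT, 250 mM NaCl with SYPRO Orange. Compound at 8 µM final (2.5% DMSO vehicle) was added for 10 minutes, then samples were heated 25°C to 95°C at 0.03°C/s. Tm was derived from the melt curve.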

A further data set relates to HCT116 wild-type cells. Briefly: Cell proliferation inhibition (CellTiter-Glo), HCT116 wild-type cells. It counts as cell-based. The essentials:
(§1)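 Cells were grown in McCoy's 5A with 10% FBS, adhered overnight, then exposed to serial compound dilutions for 72-240 h at 37°C, 5% CO2, with a vehicle control. Viability was read as CellTiter-Glo luminescence, and IC50 came from nonlinear regression of inhibition rate against concentration.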
On the technique in general: Cellular ATP, detected with luciferase, serves as a proxy for viable cell number.

Data set [2] deals with MTAP Knockout HCT116 cells. The data set is described as follows: Cell proliferation inhibition (CellTiter-Glo), HCT116 MTAP knockout cells. It counts as cell-based. Conditions: for Selectivity: HCT116 IC50 versus MTAP Knockout HCT116 IC50. In short, it runs like this:
as §1

A short description of data set [3]: Pharmacokinetics in rats (plasma) after oral administration. It counts as in vivo. Conditions: SD rats, p.o. 5 mg/kg; for MRT inf: read-out: MRT0-∞.
Another data set has as its target hERG potassium channel (Homo sapiens, UniProt Q12809). Briefly: hERG potassium channel inhibitory activity assay (CHO-hERG cells, tail current). It counts as cell-based. Conditions: inhibition of tail current, read-out: inhibitory activity (IC50) against the cardiac hERG potassium channel. An excerpt: Test Example 5: hERG potassium channel inhibitory activity assay
1 Study objective: The objective of this test example is to determine the inhibitory effect of the compound on the hERG potassium channel activity. 2 Experimental instruments and reagents: 2.1 Reagents
3. Experimental method • 3.1 Cell culture: The CHO cells stably expressing the hERG potassium channel (CHO-hERG) used in the experiment were obtained from Sophion Bioscience (Ballerup, Denmark), and passaged and cryopreserved at WuXi AppTec Co., Ltd. in Shanghai. The CHO-hERG cells were cultured and passaged in Ham's F-12 medium containing 1 × GlutaMAX, 10% foetal bovine serum, 100 µg/mL G418 and 100 µg/mL hygromycin B at 37°C with 5% CO2. • 3.2 Preparation of intracellular and extracellular solutions: The extracellular solution was prepared once a month, and aliquoted and stored in 1 L storage bottles. The intracellular solution was prepared once every three months, and aliquoted and cryopreserved at -20°C. The intracellular solution was thawed in a 37°C water bath before the experiment and then placed in an ice bath for later use. • 3.3 Preparation of compounds: The positive control drug amitriptyline hydrochloride and the compounds were dissolved in 100% DMSO (Sigma-Aldrich, D2650) to prepare 10 mM or 30 mM stock solutions. Before the experiment, the stock solutions of the test compounds were diluted with DMSO to prepare solutions 1000-fold or 333-fold higher than the desired test concentrations, and then further diluted 1000-fold or 333-fold with the extracellular solution to achieve the desired concentrations. • 3.4 Cell preparation: The CHO-hERG cells used in the experiment were cultured for at least two days. When the cell density reached more than 75%, the cells were digested with TrypLE, then resuspended in the extracellular solution, and centrifuged. The supernatant was discarded, and then the cells were further resuspended in 2 mL of extracellular solution for later use. • 3.4 Experimental data processing: In data processing, the peak tail current was baseline-corrected when evaluating the hERG blocking effect. The effect of each compound at various concentrations was expressed as the inhibition rate of the tail current. IC50 values were obtained by fitting the data to the Hill equation: I/Icontrol =Bottom + (Top-Bottom)/(1+10^((LogIC50-X) * HillSlope)) • Top: maximum effect; Bottom: minimum effect; Hillslope: slope; X: concentration of the test compound. • IC50: half-maximal inhibitory concentration of the test compound on hERG.
(Block of hERG is tested as a sign of cardiac risk.)

[4] abbreviates: Homo sapiens, HCT-116, HCT116 wild-type cells, proliferation inhibition, Cell Titer-Glo, read-out: HCT116 IC50.
[5] abbreviates: Homo sapiens, HCT-116, MTAP Knockout HCT116 cells, proliferation inhibition, Cell Titer-Glo, read-out: MTAP Knockout HCT116 IC50.
Setting [6] is: Homo sapiens, HCT-116, read-out: HCT116 IC50.
[7] abbreviates: Homo sapiens, HCT-116, read-out: MTAP Knockout HCT116 IC50.

Read-outs that look alike come from different tables or passages of the source. Where only a bound is given, the exact number is not on record here.

T1 sequence (O14744 whole entry): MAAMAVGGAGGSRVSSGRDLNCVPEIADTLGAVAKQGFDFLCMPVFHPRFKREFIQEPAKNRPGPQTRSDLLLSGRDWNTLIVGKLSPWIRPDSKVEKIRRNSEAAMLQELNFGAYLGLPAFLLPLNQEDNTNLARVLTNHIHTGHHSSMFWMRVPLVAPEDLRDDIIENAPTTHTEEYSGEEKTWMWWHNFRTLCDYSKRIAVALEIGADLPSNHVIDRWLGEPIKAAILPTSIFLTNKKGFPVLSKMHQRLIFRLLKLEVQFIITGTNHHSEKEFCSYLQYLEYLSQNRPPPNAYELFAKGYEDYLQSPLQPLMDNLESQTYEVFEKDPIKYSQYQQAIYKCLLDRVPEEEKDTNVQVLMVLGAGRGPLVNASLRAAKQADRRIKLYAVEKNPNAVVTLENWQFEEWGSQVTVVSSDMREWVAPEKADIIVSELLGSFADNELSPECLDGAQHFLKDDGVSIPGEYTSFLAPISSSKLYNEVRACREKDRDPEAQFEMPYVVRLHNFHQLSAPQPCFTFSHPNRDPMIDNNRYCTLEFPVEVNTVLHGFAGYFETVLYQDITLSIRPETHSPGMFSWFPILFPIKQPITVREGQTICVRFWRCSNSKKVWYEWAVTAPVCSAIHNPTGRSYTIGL
T1 sequence (Q9BQA1 whole entry partner): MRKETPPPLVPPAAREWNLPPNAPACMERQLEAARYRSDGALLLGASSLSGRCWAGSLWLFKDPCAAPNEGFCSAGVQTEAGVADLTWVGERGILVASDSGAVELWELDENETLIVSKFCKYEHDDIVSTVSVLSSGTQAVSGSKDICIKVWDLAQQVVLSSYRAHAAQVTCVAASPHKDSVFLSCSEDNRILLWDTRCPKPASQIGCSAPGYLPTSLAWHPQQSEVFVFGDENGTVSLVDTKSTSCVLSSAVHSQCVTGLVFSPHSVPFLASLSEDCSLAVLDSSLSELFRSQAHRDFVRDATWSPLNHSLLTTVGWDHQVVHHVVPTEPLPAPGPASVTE
Chain of hERG potassium channel (Q12809 whole entry): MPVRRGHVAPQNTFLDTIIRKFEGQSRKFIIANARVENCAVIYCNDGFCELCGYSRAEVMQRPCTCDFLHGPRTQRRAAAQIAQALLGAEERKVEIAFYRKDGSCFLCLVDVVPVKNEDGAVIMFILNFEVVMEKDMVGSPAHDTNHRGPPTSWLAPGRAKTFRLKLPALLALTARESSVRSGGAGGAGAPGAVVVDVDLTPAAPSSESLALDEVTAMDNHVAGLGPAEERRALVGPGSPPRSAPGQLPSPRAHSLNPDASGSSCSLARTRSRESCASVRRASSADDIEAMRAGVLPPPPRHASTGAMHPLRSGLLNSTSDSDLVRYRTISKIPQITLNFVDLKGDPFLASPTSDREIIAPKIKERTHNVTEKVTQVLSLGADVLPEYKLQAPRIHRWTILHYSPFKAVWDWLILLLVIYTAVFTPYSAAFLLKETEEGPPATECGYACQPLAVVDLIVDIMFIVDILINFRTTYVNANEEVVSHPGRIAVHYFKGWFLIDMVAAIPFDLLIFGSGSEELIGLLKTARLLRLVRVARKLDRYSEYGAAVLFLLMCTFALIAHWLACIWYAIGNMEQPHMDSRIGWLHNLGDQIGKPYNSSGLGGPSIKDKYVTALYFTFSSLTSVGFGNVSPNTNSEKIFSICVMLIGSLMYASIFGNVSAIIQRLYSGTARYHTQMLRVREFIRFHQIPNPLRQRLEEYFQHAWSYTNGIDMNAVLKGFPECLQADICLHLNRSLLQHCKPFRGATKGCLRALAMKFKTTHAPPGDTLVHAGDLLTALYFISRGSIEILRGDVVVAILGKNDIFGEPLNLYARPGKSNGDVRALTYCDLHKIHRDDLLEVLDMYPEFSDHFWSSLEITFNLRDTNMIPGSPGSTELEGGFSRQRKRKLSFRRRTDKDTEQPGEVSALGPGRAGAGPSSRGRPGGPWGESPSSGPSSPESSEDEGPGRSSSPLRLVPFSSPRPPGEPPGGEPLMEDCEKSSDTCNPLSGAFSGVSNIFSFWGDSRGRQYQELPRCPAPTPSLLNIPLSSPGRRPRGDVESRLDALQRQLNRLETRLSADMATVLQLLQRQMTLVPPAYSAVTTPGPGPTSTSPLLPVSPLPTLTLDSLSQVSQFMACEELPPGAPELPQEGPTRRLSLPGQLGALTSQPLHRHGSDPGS

On to `Nc1nc2cc3c(cc2c2c1COC2)C(=O)N(C1COCc2nc(C(F)(F)F)ccc21)CCC/C=C\3` (single isomer, unassigned) [Example 165-P1], for which, in data set [1], the ΔTm (usually the change in melting temperature against a reference sample) at 8 µM was 11.9 °C. Further, the IC50 (commonly the concentration at which inhibition is half-maximal) in the data set with HCT116 wild-type cells (setting [4]) was found to be 682 nM. In data set [2], the Selectivity worked out at 132. Besides, in data set [2] (setting [5]), the half-inhibitory concentration (IC50) worked out at 5.2 nM. Moreover, in data set [3] (male, rat, po), the AUC(0-inf) (in general, the area under the concentration-time curve extrapolated to infinity) was found to be 999 ng·h/mL; the half-life (as a rule, how long it takes for the measured level to halve) is 90 min; the MRT inf was determined as 2.5 h. Besides, the Cmax (as a rule, the highest concentration seen after dosing) in data set [3] (male, rat, po, read-out: Cmax) is 321 ng/mL. The Tmax (commonly the time from dosing to the highest level) in data set [3] (male, rat, po, read-out: tmax) is 1 h.
As for `Nc1nc2cc3c(cc2n2cncc12)C(=O)N(Cc1ccc(C(F)(F)F)cn1)CCCOC3` [Example 176, 4-Amino-12-((5-(trifluoromethyl)pyridin-2-yl)methyl)-9,10,11,12-tetrahydroimidazo[1,5-a][1,5]oxazonino[8,7-g]quinoxalin-13(7H)-one], the shift in melting temperature (ΔTm) at 8 µM in data set [1] turned out to be 11.5 °C. The 50% inhibitory concentration (IC50) with HCT116 wild-type cells (setting [4]) was 946 nM; in data set [2] (setting [5]), 15 nM; at hERG potassium channel, more than 30 µM. For the same compound, in data set [2], the Selectivity is on record as 62.
For `Nc1nc2cc3c(cc2n2cncc12)C(=O)N(Cc1ccc(-c2c(F)cccc2F)cn1)CCCOC3` [Example 298, 4-Amino-12-((5-(2,6-difluorophenyl)pyridin-2-yl)methyl)-9,10,11,12-tetrahydroimidazo[1,5-a][1,5]oxazolo[8,7-g]quinoxalin-13(7H)-one], the shift in melting temperature (ΔTm) at 8 µM in data set [1] was found to be 12.5 °C. Moreover, the IC50 with HCT116 wild-type cells (setting [6]) is 219 nM; in data set [2] (setting [7]), 2.7 nM; on hERG potassium channel, more than 30 µM. Besides, the Selectivity in data set [2] turned out to be 81.
`Nc1nc2cc3c(cc2n2cncc12)C(=O)N(Cc1ccc(S(F)(F)(F)(F)F)cn1)CCCOC3` [Example 414, 4-Amino-12-((5-(pentafluoro-λ^6-sulphanyl)pyridin-2-yl)methyl)-9,10,11,12-tetrahydroimidazo[1,5-a][1,5]oxazonino[8,7-g]quinoxalin-13(7H)-one]: in data set [1], the ΔTm at 8 µM came to 12.3 °C. Besides, the IC50 with HCT116 wild-type cells (setting [4]) was 229 nM. Moreover, the Selectivity in data set [2] was 47. Further, the 50% inhibitory concentration (IC50) in data set [2] (setting [5]) was 4.9 nM. Besides, in data set [3] (male, rat, po), the area under the curve AUC(0-inf) was found to be 949 ng·h/mL, the half-life is 78 min and the MRT inf worked out at 3.3 h. Also, the Cmax in data set [3] (male, rat, po, read-out: Cmax) was 208 ng/mL. For the same compound, the Tmax in data set [3] (male, rat, po, read-out: tmax) was 2 h.
For `Nc1nc2cc3c(cc2n2cncc12)C(=O)N(Cc1ccc(C(F)(F)F)cn1)CC/C=C\3` [Example 416, (Z)-4-Amino-11-(5-(trifluoromethyl)pyridin-2-yl)methyl-10,11-dihydroazocino[4,3-g]imidazo[1,5-a]quinoxalin-12(9H)-one], the ΔTm at 8 µM in data set [1] came to 12.4 °C. Moreover, the IC50 with HCT116 wild-type cells (setting [4]) worked out at 222 nM. Besides, the Selectivity in data set [2] came out at 93. In addition, the 50% inhibitory concentration (IC50) in data set [2] (setting [5]) came out at 2.4 nM. In data set [3] (male, rat, po), the AUC(0-inf) was 1520 ng·h/mL, the half-life was 78 min and the MRT inf was determined as 2.9 h. Further, in data set [3] (male, rat, po, read-out: Cmax), the highest concentration (Cmax) stood at 395 ng/mL. Besides, the Tmax in data set [3] (male, rat, po, read-out: tmax) was found to be 2 h.
`Nc1nc2cc3c(cc2n2cncc12)C(=O)N(Cc1ccc(C(F)(F)F)cn1)CCCCOC3` [Example 417, 4-Amino-13-((5-(trifluoromethyl)pyridin-2-yl)methyl)-10,11,12,13-tetrahydro-7H-imidazo [1,5-a][1,6] oxazino [3,4-g] quinoxalin-14(9H)-one]: the thermal shift (ΔTm) at 8 µM in data set [1] was found to be 11.1 °C. For the same compound, the half-inhibitory concentration (IC50) in the data set on HCT116 wild-type cells (setting [6]) was 3800 nM; in data set [2] (setting [7]), 11 nM; at hERG potassium channel, more than 30 µM. For the same compound, the Selectivity in data set [2] came to 346.
On to `Nc1nc2cc3c(cc2c2c1COC2)C(=O)N(Cc1ccc(S(F)(F)(F)(F)F)cn1)CCCOC3` [Example 434, 4-Amino-3-methyl-12-((5-(pentafluorosulphanyl)pyridin-2-yl)methyl)-3,7,9,10,11,12-hexahydrofuro[3,4-c][1,5]oxazolo[7,8-g]quinolin-13(1H)-one], for which the ΔTm at 8 µM in data set [1] was determined as 12.2 °C. Further, the half-inhibitory concentration (IC50) in the data set with HCT116 wild-type cells (setting [6]) came out at 578 nM. In addition, the Selectivity in data set [2] was determined as 87. Moreover, the IC50 in data set [2] (setting [7]) was determined as 6.7 nM. Besides, in data set [3] (rat, po), the AUC(0-inf) is 2330 ng·h/mL, the half-life is 186 min and the MRT inf was 5.3 h. Further, in data set [3] (rat, po, read-out: Cmax), the Cmax is 273 ng/mL. In addition, the time to peak (Tmax) in data set [3] (rat, po, read-out: tmax) is 2 h.
Turning to `C[C@H]1OCc2c1c(N)nc1cc3c(cc21)C(=O)N(Cc1ccc(S(F)(F)(F)(F)F)cn1)CCCOC3` [Example 437-P1, (R)-4-Amino-3-methyl-12-((5-(pentafluorosulphanyl)pyridin-2-yl)methyl)-3,7,9,10,11,12-hexahydrofuro[3,4-c][1,5]oxazolo[7,8-g]quinolin-13(1H)-one], the shift in melting temperature (ΔTm) at 8 µM in data set [1] was 12.6 °C. Also, the half-inhibitory concentration (IC50) with HCT116 wild-type cells (setting [6]) is 187 nM. The Selectivity in data set [2] stood at 85. For the same compound, the IC50 in data set [2] (setting [7]) came to 2.2 nM. Also, in data set [3] (rat, in vivo, po), the area under the curve AUC(0-inf) is 2050 ng·h/mL, the half-life was 144 min and the MRT inf came to 3.7 h. Moreover, the Cmax in data set [3] (rat, in vivo, po, read-out: Cmax) amounted to 318 ng/mL. Further, the Tmax in data set [3] (rat, in vivo, po, read-out: tmax) was determined as 2 h.
With `Nc1nc2cc3c(cc2c2c1COC2)C(=O)N(Cc1ccc(C(F)(F)F)cn1)CC/C=C\3` [Example 638, (Z)-4-Amino-11-((5-(trifluoromethyl)pyridin-2-yl)methyl)-3,9,10,11-tetrahydronaphthyrido[3,4-g]furo[3,4-e]quinoxalin-12(1H)-one], the shift in melting temperature (ΔTm) at 8 µM in data set [1] came to 12.3 °C. Besides, the 50% inhibitory concentration (IC50) with HCT116 wild-type cells (setting [6]) turned out to be 318 nM. For the same compound, the Selectivity in data set [2] is 71. Besides, in data set [2] (setting [7]), the 50% inhibitory concentration (IC50) worked out at 4.5 nM. Moreover, in data set [3] (rat, po), the total exposure AUC(0-inf) came out at 929 ng·h/mL, the half-life is 108 min and the MRT inf was found to be 3.5 h. In addition, the peak concentration (Cmax) in data set [3] (rat, po, read-out: Cmax) is 241 ng/mL. The Tmax in data set [3] (rat, po, read-out: tmax) amounted to 1.7 h.
With “(Z)-4-Amino-12-((5-(trifluoromethyl)pyridin-2-yl)methyl)-9,10,11,12-tetrahydro-13H-azonino[4,3-g]imidazo[1,5-a]quinoxalin-13-one [Example 171]”, the “ΔTm (°C)” value in data set [1] turned out to be 12.03 °C. Further, the concentration for half-maximal inhibition (IC50) with HCT116 wild-type cells (HCT116 wild-type cells, proliferation inhibition, Cell Titer-Glo, read-out: HCT116 IC50) turned out to be 236 nM. Moreover, the Selectivity in data set [2] came out at 90. In addition, in data set [2] (MTAP Knockout HCT116 cells, proliferation inhibition, Cell Titer-Glo, read-out: MTAP Knockout HCT116 IC50), the IC50 was determined as 2.6 nM. For the same compound, in data set [3], the “AUC 0-∞” value is 1058 ng·h/mL, the Cmax was 283 ng/mL, the “MRT0-∞” value is on record as 2.9 h and the Tmax was 1.0 h. The same compound registered a t1/2 in data set [3] of 1.6 h.
